The values that follow come from paper PMC11995724, “Antibiotic target discovery by integrated phenotypic and activity-based profiling of electrophilic fragments” (Cell chemical biology, 2025).

Broadly, the viability is a read-out of living cells in per cent, often relative to untreated cells.

This series can be described thus: in vitro. The settings on record: human, hek293t cells.
Take `C=CC(=O)N1CCC(C(=O)N2CCC(OC)(C(F)(F)F)CC2)CC1` [3-E08, 1-{4-[4-methoxy-4-(trifluoromethyl)piperidine-1-carbonyl]piperidin-1-yl}prop-2-en-1-one]: the viability at 48 h, 25 µM came out at 98.2%.
Turning to `C=CC(=O)N1CCOC(c2cccc(OC)c2)C1` (stereo not drawn) [3-E09, 1-[2-(3-methoxyphenyl)morpholin-4-yl]prop-2-en-1-one], the viability at 48 h, 25 µM turned out to be 34.5%.
On to `C=CC(=O)NCCC(=O)N1CCCC1c1cn(C)nc1C` (stereo not drawn) [3-E10, N-{3-[2-(1,3-dimethyl-1H-pyrazol-4-yl)pyrrolidin-1-yl]-3-oxopropyl}prop-2-enamide], for which the viability at 48 h, 25 µM stood at 95.2%.
For `C=CC(=O)N1CCCC2(CCCOC2)C1` (stereo not drawn) [3-E11, 1-{2-oxa-8-azaspiro[5.5]undecan-8-yl}prop-2-en-1-one] the value was 46.3%.
Then `C=CC(=O)N1CCC([C@@H](C)O)CC1` [3-E12, 1-{4-[(1R)-1-hydroxyethyl]piperidin-1-yl}prop-2-en-1-one], with 104%; and `C=CC(=O)Nc1ccc(C(=O)N2CCCCC2c2n[nH]c(C)n2)cc1` (stereo not drawn) [3-E13, N-{4-[2-(5-methyl-1H-1,2,4-triazol-3-yl)piperidine-1-carbonyl]phenyl}prop-2-enamide], with 34.9%; and `C=CC(=O)N(C)CC(=O)NC(C)(C)c1nc(C)cs1` [3-E14, N-methyl-N-({[2-(4-methyl-1,3-thiazol-2-yl)propan-2-yl]carbamoyl}methyl)prop-2-enamide], with 87.9%.
For `C=CC(=O)N1CCCC(CNC(C)=O)C1` (stereo not drawn) [3-E15, N-{[1-(prop-2-enoyl)piperidin-3-yl]methyl}acetamide] the value was 46.4%; for `C=CC(=O)N1CCC(C(=O)Nc2ccc3c(c2)CCN3C(N)=O)CC1` [3-E16, 5-[1-(prop-2-enoyl)piperidine-4-amido]-2,3-dihydro-1H-indole-1-carboxamide], 101%; for `C=CC(=O)N1CCC(C(=O)N[C@]2(C(=O)OC)CC[C@@H](C)CC2)CC1` [3-E17, methyl (1r,4r)-4-methyl-1-[1-(prop-2-enoyl)piperidine-4-amido]cyclohexane-1-carboxylate], 57%.
For the molecule `C=CC(=O)NCc1ncoc1C(F)(F)F` [3-E18, N-{[5-(trifluoromethyl)-1,3-oxazol-4-yl]methyl}prop-2-enamide], the viability at 48 h, 25 µM came to 93.1%.
In the case of `C=CC(=O)NCc1ccc(C(=O)N2CCCC(c3nnc[nH]3)C2)cc1` (stereo not drawn) [3-E19, N-({4-[3-(4H-1,2,4-triazol-3-yl)piperidine-1-carbonyl]phenyl}methyl)prop-2-enamide], the viability at 48 h, 25 µM came out at 34.3%.
With `C=CC(=O)N1CCC(C(=O)Nc2ccc(N)c([N+](=O)[O-])c2)CC1` [3-E20, N-(4-amino-3-nitrophenyl)-1-(prop-2-enoyl)piperidine-4-carboxamide], the viability at 48 h, 25 µM was 56.7%.
On to `C=CC(=O)N(CC)CC(=O)N1CCNC(=O)CC1c1ccccc1` (stereo not drawn) [3-E21, N-ethyl-N-[2-oxo-2-(5-oxo-7-phenyl-1,4-diazepan-1-yl)ethyl]prop-2-enamide], for which the viability at 48 h, 25 µM is 33.1%.
Then `C=CC(=O)N1CCC(C(=O)N[C@@H](C)c2ccc(Cl)s2)CC1` [3-E22, N-[(1S)-1-(5-chlorothiophen-2-yl)ethyl]-1-(prop-2-enoyl)piperidine-4-carboxamide], with 65.7%; and `C=CC(=O)N(CC)CC(=O)N1CCCC(c2nccn2C)C1` (stereo not drawn) [3-F03, N-ethyl-N-{2-[3-(1-methyl-1H-imidazol-2-yl)piperidin-1-yl]-2-oxoethyl}prop-2-enamide], with 106%.
As for `C=CC(=O)N1CCCCC1c1nc2ccccc2n1C` (stereo not drawn) [3-F04, 1-[2-(1-methyl-1H-1,3-benzodiazol-2-yl)piperidin-1-yl]prop-2-en-1-one], the viability at 48 h, 25 µM worked out at 84.2%.
Then `C=CC(=O)N1CCC(C(=O)Nc2cccc(NC(=O)C(C)C)c2)CC1` [3-F05, N-[3-(2-methylpropanamido)phenyl]-1-(prop-2-enoyl)piperidine-4-carboxamide], with 53.3%.
Then `C=CC(=O)NCCC(=O)N1CCN(c2nc(C)cs2)CC1` [3-F07, N-{3-[4-(4-methyl-1,3-thiazol-2-yl)piperazin-1-yl]-3-oxopropyl}prop-2-enamide], with 52.1%; and `C=CC(=O)NCCC(=O)N1CCc2cc(C)c([N+](=O)[O-])cc21` [3-F08, N-[3-(5-methyl-6-nitro-2,3-dihydro-1H-indol-1-yl)-3-oxopropyl]prop-2-enamide], with 82.7%.
Then `C=CC(=O)NC(C)c1ccc2c(c1)CCC2` (stereo not drawn) [3-F09, N-[1-(2,3-dihydro-1H-inden-5-yl)ethyl]prop-2-enamide], with 72.3%.
`C=CC(=O)NCc1nnc(COC)[nH]1` [3-F10, N-{[5-(methoxymethyl)-4H-1,2,4-triazol-3-yl]methyl}prop-2-enamide]: the viability at 48 h, 25 µM is 102%.
For `C=CC(=O)NCc1cccc(CNS(C)(=O)=O)c1` [3-F11, N-{[3-(methanesulfonamidomethyl)phenyl]methyl}prop-2-enamide], the viability at 48 h, 25 µM worked out at 95.9%.
With `C=CC(=O)N1CCC(C(=O)N[C@H]2CCOc3c(F)cccc32)CC1` [3-F12, N-[(4S)-8-fluoro-3,4-dihydro-2H-1-benzopyran-4-yl]-1-(prop-2-enoyl)piperidine-4-carboxamide], the viability at 48 h, 25 µM is 64.9%.
For `C=CC(=O)N(CCC(N)=O)C1CCOc2ccccc21` (stereo not drawn) [3-F13, N-(2-carbamoylethyl)-N-(3,4-dihydro-2H-1-benzopyran-4-yl)prop-2-enamide] the value was 69.2%; for `C=CC(=O)Nc1cc(C)cc(S(C)(=O)=O)c1` [3-F14, N-(3-methanesulfonyl-5-methylphenyl)prop-2-enamide], 94.1%.
As for `C=CC(=O)N(C)Cc1cn(C)nc1C(C)C` [3-F15, N-methyl-N-{[1-methyl-3-(propan-2-yl)-1H-pyrazol-4-yl]methyl}prop-2-enamide], the viability at 48 h, 25 µM amounted to 80.7%.
Then `C=CC(=O)Nc1ccccc1CNS(C)(=O)=O` [3-F16, N-[2-(methanesulfonamidomethyl)phenyl]prop-2-enamide], with 104%; and `C=CC(=O)NC(Cn1cncn1)c1ccccc1` (stereo not drawn) [3-F17, N-[1-phenyl-2-(1H-1,2,4-triazol-1-yl)ethyl]prop-2-enamide], with 71.9%; and `C=CC(=O)NC1CCC(S(C)(=O)=O)C1` (stereo not drawn) [3-F18, N-(3-methanesulfonylcyclopentyl)prop-2-enamide], with 94.3%.
In the case of `C=CC(=O)NCC1CCCN1S(=O)(=O)CC` (stereo not drawn) [3-F19, N-{[1-(ethanesulfonyl)pyrrolidin-2-yl]methyl}prop-2-enamide], the viability at 48 h, 25 µM came out at 68.6%.
For `C=CC(=O)NCc1cc(C(F)(F)F)on1` [3-F20, N-{[5-(trifluoromethyl)-1,2-oxazol-3-yl]methyl}prop-2-enamide] the value was 84.8%.
For `C=CC(=O)NCCN1CCn2nccc2C1` [3-F21, N-(2-{4H,5H,6H,7H-pyrazolo[1,5-a]pyrazin-5-yl}ethyl)prop-2-enamide] the value was 72.8%; for `C=CC(=O)N1CCN(Cc2cc(=O)n3ccsc3n2)CC1` [3-F22, 7-{[4-(prop-2-enoyl)piperazin-1-yl]methyl}-5H-[1,3]thiazolo[3,2-a]pyrimidin-5-one], 90.5%; for `C=CC(=O)N1C2C=C(c3nccn3C)CC1CC2` (stereo not drawn) [3-G03, 1-[3-(1-methyl-1H-imidazol-2-yl)-8-azabicyclo[3.2.1]oct-2-en-8-yl]prop-2-en-1-one], 52.5%.
For `C=CC(=O)N(C)CC(=O)Nc1ccc(C)c(S(=O)(=O)N(C)C)c1` [3-G04, N-({[3-(dimethylsulfamoyl)-4-methylphenyl]carbamoyl}methyl)-N-methylprop-2-enamide], the viability at 48 h, 25 µM amounted to 78.3%.
Then `C=CC(=O)N(C)c1ccc(C#N)c(Cl)c1` [3-G05, N-(3-chloro-4-cyanophenyl)-N-methylprop-2-enamide], with 0.69%; and `C=CC(=O)NC1CCN(c2nnnn2C)CC1` [3-G06, N-[1-(1-methyl-1H-1,2,3,4-tetrazol-5-yl)piperidin-4-yl]prop-2-enamide], with 79.8%.
Regarding `C=CC(=O)N(CC)CC(=O)N1CCNC(=O)C1c1cccs1` (stereo not drawn) [3-G07, N-ethyl-N-{2-oxo-2-[3-oxo-2-(thiophen-2-yl)piperazin-1-yl]ethyl}prop-2-enamide], the viability at 48 h, 25 µM is 40%.
For `C=CC(=O)Nc1ccnn1CC1CC1` [3-G09, N-[1-(cyclopropylmethyl)-1H-pyrazol-5-yl]prop-2-enamide] the value was 41.5%.
With `C=CC(=O)N1CCCN(S(=O)(=O)c2ccc(OC)cc2)CC1` [3-G10, 1-[4-(4-methoxybenzenesulfonyl)-1,4-diazepan-1-yl]prop-2-en-1-one], the viability at 48 h, 25 µM was 96.8%.
On to `C=CC(=O)N1CCN(Cc2nc(C(C)C)no2)CC1` [3-G11, 1-(4-{[3-(propan-2-yl)-1,2,4-oxadiazol-5-yl]methyl}piperazin-1-yl)prop-2-en-1-one], for which the viability at 48 h, 25 µM worked out at 55.2%.
On to `C=CC(=O)N1CCCC1c1cc(C)no1` (stereo not drawn) [3-G12, 1-[2-(3-methyl-1,2-oxazol-5-yl)pyrrolidin-1-yl]prop-2-en-1-one], for which the viability at 48 h, 25 µM amounted to 91.7%.
For `C=CC(=O)N1CCC(C(=O)NC(C)c2cccc(C(F)(F)F)c2)CC1` (stereo not drawn) [3-G13, 1-(prop-2-enoyl)-N-{1-[3-(trifluoromethyl)phenyl]ethyl}piperidine-4-carboxamide] the value was 40.6%.
Then `C=CC(=O)Nc1cccc(OC(C)(C)C)c1` [3-G14, N-[3-(tert-butoxy)phenyl]prop-2-enamide], with 85.8%.
On to `C=CC(=O)N1CCCC(NS(=O)(=O)c2cccc(F)c2)C1` (stereo not drawn) [3-G15, 3-fluoro-N-[1-(prop-2-enoyl)piperidin-3-yl]benzene-1-sulfonamide], for which the viability at 48 h, 25 µM amounted to 58%.
Consider `C=CC(=O)NCC1=NOCC1` [3-G16, N-[(4,5-dihydro-1,2-oxazol-3-yl)methyl]prop-2-enamide], for which the viability at 48 h, 25 µM was determined as 104%.
With `C=CC(=O)NCc1ccc(C(=O)N2CCN(C(C)=O)CC2)cc1` [3-G17, N-{[4-(4-acetylpiperazine-1-carbonyl)phenyl]methyl}prop-2-enamide], the viability at 48 h, 25 µM was found to be 32.9%.
